For orientation: IC50 means the concentration at which inhibition is half-maximal.

This passage reports IC50 results from patent publication US20240246954A1, “COMPOSITIONS AND METHODS FOR INHIBITING KRAS” (TheRas, Inc., priority 2021, published 2024).

Structures are written as SMILES. Some results are limits rather than exact numbers.

Assay [1] has as its target T1, Avi-KRAS G12D (1-169) GppNHp/RAF1 RBD-3×FLAG (52-151) (Homo sapiens, UniProt P01116, G12D).
T1 construct: Avi-KRAS G12D (1-169) GppNHp
In words: HTRF Raf1-KRAS G12D-GppNHp disruption assay. It is filed as biochemical. The following applies: 1 h incubation. The method, boiled down: (§1)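 HTRF read-out (320 nm excitation, 615 nm emission) after two 1 h room-temperature incubations, first with protein mix, then detection reagents. Ten-point dilution series starting at 100 μM; results given as % activity relative to DMSO at 100%.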
For orientation: Time-resolved FRET reads energy transfer from a long-lived donor to a nearby acceptor.

Assay [2] concerns the target T2, Avi-KRAS G12D/Q25A (1-169) GppNHp/3×FLAG-PI3KCA (157-299) (Homo sapiens, UniProt P01116, G12D/Q25A).
T2 construct: Avi-KRAS G12D/Q25A (1-169) GppNHp
Kind of assay: HTRF PI3KCA-KRAS G12D/Q25A-GppNHp disruption assay. It counts as biochemical. The following applies: 1 h incubation. The method, boiled down: as §1

For assay [3], the system named is pERK in GP2d cells (KRAS G12D). In words: Cell-based pERK HTRF assay. The following applies: GP2d, 1 h, 60 min incubation. How it is done: Biological Example 3. Cell-Based pERK HTRF Assay
pERK assay (Perkin Elmer) was used to determine the effectiveness of compounds in disrupting KRAS G12D protein/effector signaling in cells.
On Day 1, cells (GP2d) were seeded into 96-well plates at 3×10^4 cells/well in 80 μl complete growth media (DMEM, 10% FBS).
On Day 2, cells were treated with compounds at 0.25% DMSO. The source plate was created with compounds diluted in media at 5-fold the final assay concentration. The compounds were run in a 9-point concentration curve starting at 1 μM, with a half-log dilution between concentrations. 20 μL was transferred onto the cell plates (final volume in wells was 100 μL). Plates were harvested after 60 min incubation by aspirating media and adding kit-supplied 1× supplemented lysis buffer to all wells (50 μl per well). Plates were then placed on a plate shaker and incubated at 850 rpm for an additional 30 min.
Antibody mixture solution is prepared by diluting aliquoted d2 and Eu Cryptate antibodies 1:20 in kit supplied detection buffer, mix the diluted antibodies solutions (1:1 v:v). Four μL of this solution is then added to a 384-well detection plate (Perkin Elmer; 6008230).
Samples were homogenized by pipetting up and down and then transferred (16 μL of cell lysates) from the 96-well cell culture plate to two wells of the HTRF 384-well detection plate containing the antibody solution. Plates were centrifuged (524 g for 1 min) and allowed to incubate between 4 and 24 h at room temperature. Maximum signal is reached after 4 h incubation time and remains stable over a period of 24 hours. Therefore, readings can be made between 4 and 24 h of incubation. Plates were centrifuged again (524 g for 1 min), then analyzed on the EnVision plate reader using the following settings: Excitation 320 nm, Bandwidth 75 nm; Emission 615 nm, Bandwidth 85 nm; Gain 100%; Flashes 100; Lag 60 μs.

T1 sequence (P01116 1-169 isoform P01116-2 G12D limits assumed): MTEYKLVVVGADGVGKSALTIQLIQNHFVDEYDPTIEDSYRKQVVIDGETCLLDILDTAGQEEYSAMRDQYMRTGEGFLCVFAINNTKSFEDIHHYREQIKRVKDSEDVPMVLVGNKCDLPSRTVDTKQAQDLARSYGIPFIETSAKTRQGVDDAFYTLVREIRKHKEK
T2 sequence (P01116 1-169 isoform P01116-2 G12D/Q25A limits assumed): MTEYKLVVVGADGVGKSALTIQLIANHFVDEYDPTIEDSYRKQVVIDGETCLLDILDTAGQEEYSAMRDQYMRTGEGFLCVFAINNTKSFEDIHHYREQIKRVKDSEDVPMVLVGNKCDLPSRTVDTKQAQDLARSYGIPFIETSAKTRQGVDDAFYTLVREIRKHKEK

With `N#Cc1csc2c(F)ccc(-c3cc4nc(OC[C@@]56CCCN5C[C@H](F)C6)nc(N5CC6CCC(C5)N6)c4cc3C(F)(F)F)c12` [Compound 318], the values for the IC50 in assay [1], in assay [2] and in assay [3] were 1 to 10 µM, 10 to 30 µM and 0.1 to 1 µM, respectively.

Regarding `CN(c1nc(OCC2(CN3CCOCC3)CC2)nc2c(F)c(-c3ccc(F)c4sc(N)nc34)c(C(F)(F)F)cc12)[C@@H]1CCNC1` [Compound 296], the IC50 in assay [1] is 0.1 to 1 µM; in assay [2] it was 1 to 10 µM; in assay [3] it was not above 0.1 µM.

Regarding `Nc1nc2c(-c3c(OC(F)(F)F)cc4c(N5CC6CCC(C5)N6)nc(OC[C@@]56CCCN5C[C@H](F)C6)nc4c3F)ccc(F)c2s1` [Compound 232], the IC50 in assay [1] is 0.1 to 1 µM; in assay [2] it was 10 to 30 µM; in assay [3], not above 0.1 µM.

In the case of `Nc1nc2c(-c3c(C(F)(F)F)cc4c(N[C@H]5CCC[C@H](N)C5)nc(OCC56CCCN5CCC6)nc4c3F)ccc(F)c2s1` [Compound 328], the IC50 in assay [1] is 1 to 10 µM; in assay [2], 1 to 10 µM; in assay [3], more than 1 µM.

For the molecule `Nc1nc2c(-c3c(C(F)(F)F)cc4c(N5CC6CC5CN6)nc(OC[C@@]56CCCN5C[C@H](F)C6)nc4c3F)ccc(F)c2s1` (stereo partly drawn) [Compound 226], the figures for the IC50 in assay [1], in assay [2] and in assay [3] were 0.1 to 1 µM, 0.1 to 1 µM and not above 0.1 µM, respectively.

For the molecule `CN(c1nc(OC[C@@]23CCCN2C[C@H](F)C3)nc2c(F)c(-c3ccc(F)c4sc(N)nc34)c(C(F)(F)F)cc12)C1CCNC1` (stereo in doubt) [Compound 322, 7-fluoro-4-(8-fluoro-2-(((2R,7aS)-2-fluorotetrahydro-1H-pyrrolizin-7a(5H)-yl)methoxy)-4-(methyl((R)-pyrrolidin-3-yl)amino)-6-(trifluoromethyl)quinazolin-7-yl)benzo[d]thiazol-2-amine], the figures for the IC50 in assay [1], in assay [2] and in assay [3] were 0.1 to 1 µM, 1 to 10 µM and 0.1 to 1 µM, respectively.

Consider `Fc1c(-c2cc(C(F)F)cc3ccccc23)c(C(F)(F)F)cc2c(N3CC4CCC(C3)N4)nc(OCC34CCCN3CCC4)nc12` [Compound 331], for which the IC50 in assay [1] is 10 to 30 µM; in assay [2], 10 to 30 µM; in assay [3] it was more than 1 µM.

`N#Cc1cc2c(N3C[C@H]4CC[C@@H](C3)N4)nc(OC[C@@]34CCCN3C[C@H](F)C4)nc2c(F)c1-c1ccc(F)c2sc(N)c(C#N)c12` [Compound 359, 7-(2-amino-3-cyano-7-fluorobenzo[b]thiophen-4-yl)-4-((1R,5S)-3,8-diazabicyclo[3.2.1]octan-3-yl)-8-fluoro-2-(((2R,7aS)-2-fluorotetrahydro-1H-pyrrolizin-7a(5H)-yl)methoxy)quinazoline-6-carbonitrile]: the IC50 is 0.1 to 1 µM in assay [1], 0.1 to 1 µM in assay [2] and not above 0.1 µM in assay [3].

Take `N#Cc1c(N)sc2c(F)ccc(-c3ccc4c(N5CC6CCC(C5)N6)nc(OC[C@@]56CCCN5C[C@H](F)C6)nc4c3F)c12` [Compound 358]: the IC50 in assay [1] was 0.1 to 1 µM; in assay [2] it was 1 to 10 µM; in assay [3], not above 0.1 µM.

As to `Nc1nc2c(-c3c(C(F)(F)F)cc4c(NC5CNC5)nc(OC[C@@]56CCCN5C[C@H](F)C6)nc4c3F)ccc(F)c2s1` [Compound 247], the 50% inhibitory concentration (IC50) in assay [1] is 0.1 to 1 µM; in assay [2], 0.1 to 1 µM; in assay [3], more than 1 µM.

With `NC(=O)N1CC(Nc2nc(OCC34CCCN3CCC4)nc3c(F)c(-c4ccc(F)c5sc(N)nc45)c(C(F)(F)F)cc23)C1` [Compound 188], the IC50 is 0.1 to 1 µM in assay [1], 1 to 10 µM in assay [2] and more than 1 µM in assay [3].

Take `CN(c1nc(OCC23CCCN2CCC3)nc2c(F)c(-c3ccc(F)c4sc(N)nc34)c(C(F)(F)F)cc12)[C@@H]1CCNC1` (single isomer, unassigned) [Compound 236]: the IC50 in assay [1] is 0.1 to 1 µM; in assay [2], 0.1 to 1 µM; in assay [3], more than 1 µM.

Turning to `Nc1nc2c(-c3c(Cl)cc4c(N5CC6CC(C5)N6)nc(OCC56CCCN5CCC6)nc4c3F)ccc(F)c2s1` [Compound 184, 4-(4-(3,6-diazabicyclo[3.1.1]heptan-3-yl)-6-chloro-8-fluoro-2-((tetrahydro-1H-pyrrolizin-7a(5H)-yl)methoxy)quinazolin-7-yl)-7-fluorobenzo[d]thiazol-2-amine], the IC50 is 0.1 to 1 µM in assay [1], 1 to 10 µM in assay [2] and more than 1 µM in assay [3].

As for `CN(c1nc(OC[C@@]23CCCN2C[C@H](F)C3)nc2c(F)c(-c3ccc(F)c4sc(N)c(C#N)c34)c(C#N)cc12)[C@@H]1CCNC1` [Compound 345, 7-(2-amino-3-cyano-7-fluorobenzo[b]thiophen-4-yl)-8-fluoro-2-(((2R,7aS)-2-fluorotetrahydro-1H-pyrrolizin-7a(5H)-yl)methoxy)-4-(methyl((R)-pyrrolidin-3-yl)amino)quinazoline-6-carbonitrile], the IC50 in assay [1], in assay [2] and in assay [3] was 0.1 to 1 µM each time.

As for `N#Cc1cc2c(N3CC4CCC(C3)N4)nc(OC[C@@]34CCCN3C[C@H](F)C4)nc2c(F)c1-c1ccc(F)c2sc(N)nc12` [Compound 258], the IC50 was 0.1 to 1 µM in assay [1], 0.1 to 1 µM in assay [2] and not above 0.1 µM in assay [3].

Consider `N#Cc1c(O)cccc1-c1c(C(F)(F)F)cc2c(N3CC4CCC(C3)N4)nc(OCC34CCCN3CCC4)nc2c1F` [Compound 341], for which the IC50 in assay [1] was 10 to 30 µM; in assay [2] it was 10 to 30 µM; in assay [3] it was more than 1 µM.

For the molecule `Nc1nc2c(-c3c(C(F)(F)F)cc4c(N5CC[C@H]6CNC[C@H]65)nc(OC[C@@]56CCCN5C[C@H](F)C6)nc4c3F)ccc(F)c2s1` [Compound 352], the IC50 fell in the range of 1 to 10 µM in assay [1], 1 to 10 µM in assay [2] and 0.1 to 1 µM in assay [3].

Consider `Nc1nc2c(-c3c(C(F)(F)F)cc4c(N5CC6CCC(C5)N6)nc(OC[C@@]56CCCN5C[C@H](F)C6)nc4c3F)ccc(F)c2o1` [Compound 220, 4-(4-(3,8-diazabicyclo[3.2.1]octan-3-yl)-8-fluoro-2-(((2R,7aS)-2-fluorotetrahydro-1H-pyrrolizin-7a(5H)-yl)methoxy)-6-(trifluoromethyl)quinazolin-7-yl)-7-fluorobenzo[d]oxazol-2-amine], for which the IC50 in assay [1] was 0.1 to 1 µM; in assay [2], 0.1 to 1 µM; in assay [3] it was not above 0.1 µM.

As for `CN(c1nc(OC[C@@]23CCCN2C[C@H](F)C3)nc2c(F)c(-c3ccc(F)c4sc(N)c(C#N)c34)ccc12)[C@@H]1CCNC1` [Compound 344], the IC50 in assay [1], in assay [2] and in assay [3] was 0.1 to 1 µM throughout.

On to `CN1CCC[C@H]1COc1nc(NC2CNC2)c2cc(-c3ccoc3)c(-c3ccc(F)c4sc(N)nc34)c(F)c2n1` [Compound 133], for which the IC50 is 0.1 to 1 µM in assay [1], 1 to 10 µM in assay [2] and more than 1 µM in assay [3].

On to `Nc1nc2c(-c3c(C(F)(F)F)cc4c(N5C[C@H]6CC[C@@H](C5)N6)nc(OC[C@@]56CCCN5C[C@H](F)C6)nc4c3O)ccc(F)c2s1` [Compound 343, 7-(2-amino-7-fluorobenzo[d]thiazol-4-yl)-4-((1R,5S)-3,8-diazabicyclo[3.2.1]octan-3-yl)-2-(((2R,7aS)-2-fluorotetrahydro-1H-pyrrolizin-7a(5H)-yl)methoxy)-6-(trifluoromethyl)quinazolin-8-ol], for which the IC50 in assay [1] is 10 to 30 µM; in assay [2], 10 to 30 µM; in assay [3], more than 1 µM.

`Nc1nc2c(-c3c(C(F)(F)F)cc4c(N5CC[C@@H]6CCNC[C@@H]65)nc(OCC56CCCN5CCC6)nc4c3F)ccc(F)c2s1` [Compound 349]: the figures for the IC50 in assay [1], in assay [2] and in assay [3] were 1 to 10 µM, 1 to 10 µM and more than 1 µM, respectively.

Turning to `CN(c1nc(OCC23CCCN2CCC3)nc2c(F)c(-c3ccc(F)c4sc(N)nc34)c(C(F)(F)F)cc12)[C@H]1CC[C@H](N)CC1` [Compound 304], the IC50 in assay [1] was 1 to 10 µM; in assay [2] it was 1 to 10 µM; in assay [3], more than 1 µM.

Regarding `CN(c1nc(N2CC(N3CC4(CC4)C3)C2)nc2c(F)c(-c3ccc(F)c4sc(N)c(C#N)c34)c(C(F)(F)F)cc12)[C@@H]1CCNC1` [Compound 365], the IC50 in assay [1], in assay [2] and in assay [3] was 0.1 to 1 µM in each case.
